According to PubChem BioAssay (NCI):
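Dose response: 5 concentrations. Exposure: 48 h. Format: 96-well plates. Endpoint: linear interpolation; highest concentration if not reached. GI50 marks 50% less growth. TGI: total growth inhibition.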

Columns and labels:
Test in all cases: NCI tumour cell line growth inhibition, 48 h
HCT-15 colon = tested on: HCT-15 colon
A498 renal = tested on: A498 renal
LOX IMVI melanoma = tested on: LOX IMVI melanoma
NCI-H226 lung = tested on: NCI-H226 lung
ACHN renal = tested on: ACHN renal
OVCAR-3 ovarian = tested on: OVCAR-3 ovarian
A549 NSCLC = tested on: A549 NSCLC
786-0 renal = tested on: 786-0 renal
HOP-92 NSCLC = tested on: HOP-92 NSCLC
HOP-62 NSCLC = tested on: HOP-62 NSCLC
SN12C renal = tested on: SN12C renal
MOLT-4 leukemia = tested on: MOLT-4 leukemia
UACC-62 melanoma = tested on: UACC-62 melanoma
SNB-75 CNS = tested on: SNB-75 CNS
SK-MEL-5 melanoma = tested on: SK-MEL-5 melanoma
COLO 205 colon = tested on: COLO 205 colon
DU-145 prostate = tested on: DU-145 prostate
MCF7 breast = tested on: MCF7 breast
CCRF-CEM leukemia = tested on: CCRF-CEM leukemia
SF-295 CNS = tested on: SF-295 CNS
HCC-2998 colon = tested on: HCC-2998 colon
OVCAR-8 ovarian = tested on: OVCAR-8 ovarian
SK-OV-3 ovarian = tested on: SK-OV-3 ovarian
OVCAR-5 ovarian = tested on: OVCAR-5 ovarian
U251 CNS = tested on: U251 CNS
SR leukemia = tested on: SR leukemia

SMILES: Cc1c(C)[n+](=O)c(C)c(C)n1[O-]
- GI50 (HCT-15 colon): > 100 µM
- TGI (HCT-15 colon): > 100 µM
- GI50 (A498 renal): > 100 µM
- TGI (A498 renal): > 100 µM
- GI50 (LOX IMVI melanoma): > 100 µM
- TGI (LOX IMVI melanoma): > 100 µM
- GI50 (NCI-H226 lung): > 100 µM
- TGI (NCI-H226 lung): > 100 µM
- GI50 (ACHN renal): > 100 µM
- TGI (ACHN renal): > 100 µM
- GI50 (OVCAR-3 ovarian): > 100 µM
- TGI (OVCAR-3 ovarian): > 100 µM
- GI50 (A549 NSCLC): > 100 µM
- TGI (A549 NSCLC): > 100 µM
- GI50 (786-0 renal): > 100 µM
- TGI (786-0 renal): > 100 µM
- GI50 (HOP-92 NSCLC): 2.91 µM
- TGI (HOP-92 NSCLC): > 100 µM
- GI50 (HOP-62 NSCLC): > 100 µM
- TGI (HOP-62 NSCLC): > 100 µM
- GI50 (SN12C renal): > 100 µM
- TGI (SN12C renal): > 100 µM
- GI50 (MOLT-4 leukemia): > 100 µM
- TGI (MOLT-4 leukemia): > 100 µM
- GI50 (UACC-62 melanoma): > 100 µM
- TGI (UACC-62 melanoma): > 100 µM
- GI50 (SNB-75 CNS): 79.8 µM
- TGI (SNB-75 CNS): > 100 µM
- GI50 (SK-MEL-5 melanoma): > 100 µM
- TGI (SK-MEL-5 melanoma): > 100 µM
- GI50 (COLO 205 colon): > 100 µM
- TGI (COLO 205 colon): > 100 µM
- GI50 (DU-145 prostate): > 100 µM
- TGI (DU-145 prostate): > 100 µM
- GI50 (MCF7 breast): > 100 µM
- TGI (MCF7 breast): > 100 µM
- GI50 (CCRF-CEM leukemia): > 100 µM
- TGI (CCRF-CEM leukemia): > 100 µM
- GI50 (SF-295 CNS): > 100 µM
- TGI (SF-295 CNS): > 100 µM
- GI50 (HCC-2998 colon): > 100 µM
- TGI (HCC-2998 colon): > 100 µM
- GI50 (OVCAR-8 ovarian): > 100 µM
- TGI (OVCAR-8 ovarian): > 100 µM
- GI50 (SK-OV-3 ovarian): > 100 µM
- TGI (SK-OV-3 ovarian): > 100 µM
- GI50 (OVCAR-5 ovarian): > 100 µM
- TGI (OVCAR-5 ovarian): > 100 µM
- GI50 (U251 CNS): > 100 µM
- TGI (U251 CNS): > 100 µM
- GI50 (SR leukemia): > 100 µM
- TGI (SR leukemia): > 100 µM
